Data reported in publication PMC6718442, “11β-Hydroxysteroid dehydrogenases control access of 7β,27-dihydroxycholesterol to retinoid-related orphan receptor γ” (Journal of Lipid Research, 2019).
Values joined by “and” are separate entries in the source; they are usually repeats but may differ in a detail not shown here. Equal entries are not always repeated. Where two headings read alike, the source gives them in different places.

How the values were obtained:
human 11β-HSD1 [1] = target: T1, human 11β-HSD1 (Homo sapiens, UniProt P28845); assay: 11β-HSD1-dependent metabolism of 7-oxygenated 27OHCs in intact HEK-293 cells expressing 11β-HSD1 and H6PDH; format: cell-based; conditions: for Metabolism by 11β-HSD1 in intact cells (in words): 1 μM substrate, 60 min
T1 construct: expressed in transfected cells
Method: Fifty thousand stably transfected HEK-293 cells expressing either 11β-HSD2 [clone AT8 ([34])] or 11β-HSD1 and hexose-6-phosphate dehydrogenase (H6PDH) [clone HHH7 ([35])] were seeded in poly-L-lysine-coated 96-well plates and incubated for 24 h. H6PDH provides the cofactor NADPH and is required for an efficient oxoreduction reaction by 11β-HSD1 ([36]). The medium was changed to steroid- and phenol red-free DMEM (DMEM SF) for another 2 h and the cells were then treated with 1 μM of 7k27OHC in the presence or absence of 1 μM of T0504 (to inhibit 11β-HSD1) or 0.5 μM of 7β27OHC or 7α27OHC in the presence or absence of 5 μM of glycyrrhetinic acid (GA) (to inhibit 11β-HSD2). Metabolic conversion was determined after 0.5 h for 11β-HSD2 and after 1 h for 11β-HSD1.
Ice-cold acetonitrile:isopropanol (7:3, v/v) mixture containing either 100 nM deuterium-labeled 7β27OHC or corticosterone as internal standards were used to extract oxysterols from cell culture supernatants. Additionally, 1.5% (v/v) of a standard solution of the antioxidant butylated hydroxytoluene (BHT) and the peroxide reducing agent triphenylphosphine (TPP) (10 mg BHT and 25 mg TPP in 10 ml ethanol) was added ([37]). In experiments with SW-620 cells, oxysterols were extracted from cell supernatants and cells. The samples were incubated for 30 min at 4°C and 700 rotations per minute, centrifuged (16,000 g, 10 min, 4°C), and the supernatant evaporated to dryness under nitrogen to minimize oxidation from atmospheric oxygen. After reconstitution in 50 μl of methanol:ultra-pure water (1:1, v/v), the samples were again centrifuged (16,000 g, 10 min, 4°C) and the supernatants analyzed. Data (mean ± SD) were obtained from three independent experiments.
An Agilent 1290 Infinity UHPLC binary solvent delivery system including a temperature controlled autosampler and a column oven coupled to an Agilent 6490 triple quadrupole mass spectrometer with a jet stream electrospray ionization interface (AJS-ESI) (Agilent Technologies) was used to analyze oxysterols. A reversed-phase column (ACQUITY UPLC BEH C18, 1.7 μm, 2.1 × 150 mm; Waters, Wexford, Ireland) heated to 65 ± 0.8°C was applied for analyte separation. The flow-rate was 0.5 ml with solvent A [water/acetonitrile/formic acid (95/5/0.1, v/v/v)] and solvent B [water/acetonitrile/formic acid (5/95/0.1, v/v/v)]. The eluent gradient was set as follows: 0–4.5 min 45–97% B, 4.5–7 min 80% B (washout), and 7–9 min 45% B (column re-equilibration). Methanol/water (75/25, v/v) was used as needle and needle-seat flushing solvent for 10 s after sample aspiration. The samples were stored in the autosampler at 4°C until analysis. […]

human 11β-HSD1 [2] = target: T1, human 11β-HSD1; assay: Inhibition of 11β-HSD1-dependent oxoreduction of cortisone in HEK-293 cell lysates; format: biochemical; conditions: for IC50: human enzyme, 200 nM cortisone, read-out: IC50, 11β-HSD1-dependent conversion of cortisone to cortisol
Method: (§1) 11β-HSD1 and 11β-HSD2 enzyme activities were assessed in lysates of HEK-293 cells stably expressing the respective enzyme as reported earlier ([40]). Briefly, 11β-HSD1-dependent oxoreductase activity was determined by the incubation of lysates with 200 nM of radiolabeled cortisone, 500 μM of NADPH, and the test substance or vehicle for 10 min at 37°C. 11β-HSD2-dependent oxidation of cortisol was measured instead by the addition of 50 nM of radiolabeled cortisol and 500 μM of NAD^+. The enzymatic reaction was stopped by introducing an excess amount of unlabeled cortisone and cortisol (1:1, 2 mM unlabeled each, in methanol). Cortisone and cortisol were separated using TLC and a chloroform and methanol (9:1, v/v) mixture. The bands were detected under UV light, scraped off the plate, and metabolism of the radiolabeled substrate was then evaluated by scintillation counting and the substrate conversion determined and compared with the control sample. Data (mean ± SD) were normalized to the control (DMSO) sample and obtained from at least three independent experiments.

mouse 11β-hsd1 = target: T2, mouse 11β-hsd1 (Mus musculus, UniProt P50172); assay: Inhibition of murine 11β-hsd1-dependent oxoreduction of cortisone in HEK-293 cell lysates; format: biochemical; conditions: for IC50: mouse ortholog, 200 nM cortisone, 10 min, 37°C, read-out: IC50, mouse 11β-hsd1-dependent conversion of cortisone to cortisol
T2 construct: expressed in transfected cells; host or cells: HEK-293
Method: as §1

T2 sequence (P50172 whole entry): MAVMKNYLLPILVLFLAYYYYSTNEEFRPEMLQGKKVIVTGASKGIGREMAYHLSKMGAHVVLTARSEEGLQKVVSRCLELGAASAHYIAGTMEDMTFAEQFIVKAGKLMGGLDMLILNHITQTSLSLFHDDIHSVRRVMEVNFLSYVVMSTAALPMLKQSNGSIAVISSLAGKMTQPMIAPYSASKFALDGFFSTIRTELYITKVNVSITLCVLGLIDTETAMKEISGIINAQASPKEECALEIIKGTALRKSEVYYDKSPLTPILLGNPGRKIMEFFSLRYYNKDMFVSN
T1 sequence (P28845 whole entry): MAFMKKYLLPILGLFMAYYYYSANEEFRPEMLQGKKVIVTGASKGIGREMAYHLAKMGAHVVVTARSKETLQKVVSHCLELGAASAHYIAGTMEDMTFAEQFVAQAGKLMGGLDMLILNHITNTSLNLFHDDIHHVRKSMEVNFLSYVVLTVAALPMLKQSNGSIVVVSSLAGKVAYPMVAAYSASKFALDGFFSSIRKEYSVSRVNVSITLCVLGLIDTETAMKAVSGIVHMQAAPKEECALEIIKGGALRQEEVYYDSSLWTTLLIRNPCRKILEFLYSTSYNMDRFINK

| Inhibition of human 11β-HSD1 enzyme activity (in words) (human 11β-HSD1 [2]; concentrations up to 10 μM, data not shown) | Rest enzyme activity of mouse 11β-hsd1 (mouse 11β-hsd1; 1 μM test substance, data not shown) [%] | Compound | Metabolism by 11β-HSD1 in intact cells (in words) (human 11β-HSD1 [1]) | Vapp cell intact (human 11β-HSD1 [1]; intact HEK-293 cells, substrate concentration 1 μM) | IC50 (human 11β-HSD1 [2]; 10 min, 37°C) [nM] | IC50 (mouse 11β-hsd1) [nM] | IC50 (human 11β-HSD1 [2]) [nM] |
| --- | --- | --- | --- | --- | --- | --- | --- |
| – | – | CC(CO)CCC[C@@H](C)[C@H]1CC[C@H]2[C@@H]3C(=O)C=C4C[C@@H](O)CC[C@]4(C)[C@H]3CC[C@]12C (stereo partly shown) [7k27OHC, 7-keto,27-hydroxycholesterol] | stereo-specifically converted to 7β27OHC | 0.52 ± 0.10 nmol·h^−1·mg total protein^−1 and 0.52 ± 0.10^a nmol·h^−1·mg total protein^−1 | 357 ± 38 | 36 ± 2 | – |
| did not inhibit the enzyme activity | ~30 | C[C@@H](CO)CCC[C@@H](C)[C@H]1CC[C@H]2[C@@H]3[C@H](O)C=C4C[C@@H](O)CC[C@]4(C)[C@H]3CC[C@]12C [7α27OHC] | neither 7α27OHC nor 7β27OHC was oxidized | – | – | – | – |
| – | – | CC(CO)CCC[C@@H](C)[C@H]1CC[C@H]2[C@@H]3[C@@H](O)C=C4C[C@@H](O)CC[C@]4(C)[C@H]3CC[C@]12C (stereo partly drawn) [7β27OHC, 7β,27-dihydroxycholesterol] | neither 7α27OHC nor 7β27OHC was oxidized | – | – | 66 ± 11 | ≥ 3000 |
